Test results from ChEMBL document CHEMBL3885881, “DrugMatrix”.

Species on record: Rattus norvegicus
Experiment: DrugMatrix - Regimen: Daily Repeat
Format: toxicity, organism-based, Sprague-Dawley
Parameters: regimen Daily Repeat, gender Male, age 6-8 weeks
Conditions: in vivo, sc, route subcutaneous, […]; for ALANINE AMINOTRANSFERASE / ALKALINE PHOSPHATASE / ASPARTATE AMINOTRANSFERASE / BLOOD UREA NITROGEN / CARBON DIOXIDE / CHOLESTEROL / CREATINE PHOSPHOKINASE / CREATININE / GLUCOSE / LACTATE DEHYDROGENASE / LIPASE / PHOSPHORUS / POTASSIUM / TOTAL BILIRUBIN / TOTAL PROTEIN / URIC ACID / ALBUMIN / CHLORIDE: tissue Plasma
[1] = 0 mg/kg, 72 h, tissue Blood, dose level Control, time 3 day
[2] = 0 mg/kg, 72 h, dose level Control, time 3 day
[3] = 0 mg/kg, 120 h, tissue Blood, dose level Control, time 5 day
[4] = 0 mg/kg, 120 h, dose level Control, time 5 day
[5] = 10 mg/kg, 72 h, tissue Blood, dose level Low, time 3 day
[6] = 10 mg/kg, 72 h, dose level Low, time 3 day
[7] = 10 mg/kg, 120 h, tissue Blood, dose level Low, time 5 day
[8] = 10 mg/kg, 120 h, dose level Low, time 5 day
[9] = 100 mg/kg, 72 h, tissue Blood, dose level High, time 3 day
[10] = 100 mg/kg, 72 h, dose level High, time 3 day
[11] = 100 mg/kg, 120 h, tissue Blood, dose level High, time 5 day
[12] = 100 mg/kg, 120 h, dose level High, time 5 day

## COBALT(II) ACETYLACETONATE
[1]
  ABSOLUTE BASOPHIL: 0 CELLS/uL
  ABSOLUTE EOSINOPHIL: 42.67 CELLS/uL
  ABSOLUTE LYMPHOCYTE: 10202 CELLS/uL
  ABSOLUTE MONOCYTE: 261.5 CELLS/uL
  ABSOLUTE SEGMENTED NEUTROPHIL: 2193.83 CELLS/uL
  BASOPHIL: 0%
  EOSINOPHIL: 0.33%
  ERYTHROCYTE COUNT: 5.63 x10E6/uL
  HEMATOCRIT: 35.35%
  HEMOGLOBIN: 13.07 G/DL
  LEUKOCYTE COUNT: 12.7 x10E3/uL
  LYMPHOCYTE: 81.17%
  MEAN CORPUSCULAR HEMOGLOBIN: 23.23 pg
  MEAN CORPUSCULAR HEMOGLOBIN CONCENTRATION: 36.97 G/DL
  MONOCYTE: 2%
  NUCLEATED RED BLOOD CELLS: 0 /100WBC
  PLATELET COUNT: 1180.33 x10E3/uL
[2]
  ALANINE AMINOTRANSFERASE: 48.67 u/L
  ALKALINE PHOSPHATASE: 360.67 u/L
  ASPARTATE AMINOTRANSFERASE: 85.5 u/L
  BLOOD UREA NITROGEN: 17.83 mg/dL
  CARBON DIOXIDE: 26.17 mmol/L
  CHOLESTEROL: 71 mg/dL
  CREATINE PHOSPHOKINASE: 515.17 u/L
  CREATININE: 0.22 mg/dL
  GLUCOSE: 192.5 mg/dL
  LACTATE DEHYDROGENASE: 214.67 u/L
  LIPASE: 8.5 u/L
  PHOSPHORUS: 12.95 mg/dL
  POTASSIUM: 6.39 MEQ/L
  TOTAL BILIRUBIN: 0.18 mg/dL
  TOTAL PROTEIN: 5.95 G/DL
[3]
  ABSOLUTE BASOPHIL: 0 CELLS/uL
  ABSOLUTE EOSINOPHIL: 188.5 CELLS/uL
  ABSOLUTE LYMPHOCYTE: 12360.83 CELLS/uL
  ABSOLUTE MONOCYTE: 64.33 CELLS/uL
  ABSOLUTE SEGMENTED NEUTROPHIL: 1986.33 CELLS/uL
  BASOPHIL: 0%
  ERYTHROCYTE COUNT: 5.52 x10E6/uL
  HEMOGLOBIN: 13.25 G/DL
  LEUKOCYTE COUNT: 14.6 x10E3/uL
  LYMPHOCYTE: 84.5%
  MEAN CORPUSCULAR HEMOGLOBIN: 24.05 pg
  MEAN CORPUSCULAR HEMOGLOBIN CONCENTRATION: 36.98 G/DL
  MEAN CORPUSCULAR VOLUME: 64.97 fL
  MONOCYTE: 0.5%
  NEUTROPHIL: 13.67%
  NUCLEATED RED BLOOD CELLS: 0 /100WBC
  PLATELET COUNT: 1297.83 x10E3/uL
[4]
  ALANINE AMINOTRANSFERASE: 51.17 u/L
  ALKALINE PHOSPHATASE: 393.17 u/L
  ASPARTATE AMINOTRANSFERASE: 111 u/L
  BLOOD UREA NITROGEN: 18.17 mg/dL
  CARBON DIOXIDE: 25 mmol/L
  CHOLESTEROL: 65.5 mg/dL
  CREATINE PHOSPHOKINASE: 911.5 u/L
  CREATININE: 0.21 mg/dL
  GLUCOSE: 183 mg/dL
  LACTATE DEHYDROGENASE: 189 u/L
  LIPASE: 8.33 u/L
  PHOSPHORUS: 12.78 mg/dL
  POTASSIUM: 6.05 MEQ/L
  TOTAL BILIRUBIN: 0.25 mg/dL
  TOTAL PROTEIN: 5.83 G/DL
  URIC ACID: 1.58 mg/dL
[5]
  ABSOLUTE BASOPHIL: 0 CELLS/uL
  ABSOLUTE EOSINOPHIL: 159.33 CELLS/uL
  ABSOLUTE MONOCYTE: 0 CELLS/uL
  ABSOLUTE SEGMENTED NEUTROPHIL: 812 CELLS/uL
  BASOPHIL: 0%
  ERYTHROCYTE COUNT: 5.08 x10E6/uL
  HEMATOCRIT: 32.57%
  HEMOGLOBIN: 12.17 G/DL
  LEUKOCYTE COUNT: 12.37 x10E3/uL
  LYMPHOCYTE: 92%
  MEAN CORPUSCULAR HEMOGLOBIN: 23.97 pg
  MEAN CORPUSCULAR HEMOGLOBIN CONCENTRATION: 37.37 G/DL
  MONOCYTE: 0%
  NEUTROPHIL: 6.67%
  NUCLEATED RED BLOOD CELLS: 0 /100WBC
  PLATELET COUNT: 1184.33 x10E3/uL
[6]
  ALANINE AMINOTRANSFERASE: 47.67 u/L
  ALKALINE PHOSPHATASE: 375.67 u/L
  ASPARTATE AMINOTRANSFERASE: 80 u/L
  CARBON DIOXIDE: 27 mmol/L
  CHOLESTEROL: 76 mg/dL
  CREATINE PHOSPHOKINASE: 254.67 u/L
  CREATININE: 0.19 mg/dL
  GLUCOSE: 171.67 mg/dL
  LACTATE DEHYDROGENASE: 104.33 u/L
  LIPASE: 8.33 u/L
  PHOSPHORUS: 11.6 mg/dL
  TOTAL BILIRUBIN: 0.13 mg/dL
  TOTAL PROTEIN: 5.73 G/DL
[7]
  ABSOLUTE BASOPHIL: 0 CELLS/uL
  ABSOLUTE EOSINOPHIL: 119 CELLS/uL
  ABSOLUTE MONOCYTE: 35.33 CELLS/uL
  ABSOLUTE SEGMENTED NEUTROPHIL: 1425 CELLS/uL
  BASOPHIL: 0%
  EOSINOPHIL: 1%
  ERYTHROCYTE COUNT: 5.83 x10E6/uL
  HEMATOCRIT: 36.63%
  HEMOGLOBIN: 13.67 G/DL
  LEUKOCYTE COUNT: 11.87 x10E3/uL
  LYMPHOCYTE: 86.67%
  MEAN CORPUSCULAR HEMOGLOBIN: 23.47 pg
  MEAN CORPUSCULAR HEMOGLOBIN CONCENTRATION: 37.3 G/DL
  MONOCYTE: 0.33%
  NEUTROPHIL: 12%
  NUCLEATED RED BLOOD CELLS: 0 /100WBC
  PLATELET COUNT: 1357.67 x10E3/uL
[8]
  ALANINE AMINOTRANSFERASE: 36.67 u/L
  ALBUMIN: 4.6 G/DL
  ALKALINE PHOSPHATASE: 390 u/L
  ASPARTATE AMINOTRANSFERASE: 87 u/L
  BLOOD UREA NITROGEN: 22 mg/dL
  CARBON DIOXIDE: 21.67 mmol/L
  CHOLESTEROL: 77 mg/dL
  CREATINE PHOSPHOKINASE: 460.67 u/L
  CREATININE: 0.24 mg/dL
  GLUCOSE: 176.67 mg/dL
  LACTATE DEHYDROGENASE: 122.67 u/L
  PHOSPHORUS: 13.67 mg/dL
  POTASSIUM: 6.74 MEQ/L
  TOTAL BILIRUBIN: 0.2 mg/dL
  TOTAL PROTEIN: 6.7 G/DL
  URIC ACID: 2.8 mg/dL
[9]
  ABSOLUTE BASOPHIL: 0 CELLS/uL
  ABSOLUTE EOSINOPHIL: 73 CELLS/uL
  ABSOLUTE LYMPHOCYTE: 8659.67 CELLS/uL
  ABSOLUTE MONOCYTE: 133.33 CELLS/uL
  ABSOLUTE SEGMENTED NEUTROPHIL: 2500.67 CELLS/uL
  BASOPHIL: 0%
  EOSINOPHIL: 0.67%
  ERYTHROCYTE COUNT: 5.76 x10E6/uL
  HEMOGLOBIN: 13.3 G/DL
  LEUKOCYTE COUNT: 11.37 x10E3/uL
  LYMPHOCYTE: 75.67%
  MEAN CORPUSCULAR HEMOGLOBIN: 23.1 pg
  MEAN CORPUSCULAR HEMOGLOBIN CONCENTRATION: 37.2 G/DL
  MONOCYTE: 1%
  NEUTROPHIL: 22.67%
  NUCLEATED RED BLOOD CELLS: 0 /100WBC
  PLATELET COUNT: 1207 x10E3/uL
[10]
  ALANINE AMINOTRANSFERASE: 57.33 u/L
  ALKALINE PHOSPHATASE: 376.67 u/L
  ASPARTATE AMINOTRANSFERASE: 106 u/L
  BLOOD UREA NITROGEN: 17.67 mg/dL
  CARBON DIOXIDE: 26.33 mmol/L
  CHLORIDE: 109 MEQ/L
  CHOLESTEROL: 52.33 mg/dL
  CREATINE PHOSPHOKINASE: 315 u/L
  CREATININE: 0.2 mg/dL
  LACTATE DEHYDROGENASE: 200 u/L
  LIPASE: 9 u/L
  PHOSPHORUS: 10.3 mg/dL
  POTASSIUM: 5.87 MEQ/L
  TOTAL BILIRUBIN: 0.2 mg/dL
  TOTAL PROTEIN: 6 G/DL
  URIC ACID: 0.97 mg/dL
[11]
  ABSOLUTE BASOPHIL: 0 CELLS/uL
  ABSOLUTE EOSINOPHIL: 235.33 CELLS/uL
  ABSOLUTE LYMPHOCYTE: 15696 CELLS/uL
  ABSOLUTE SEGMENTED NEUTROPHIL: 4063 CELLS/uL
  BASOPHIL: 0%
  ERYTHROCYTE COUNT: 5.59 x10E6/uL
  HEMATOCRIT: 34.73%
  HEMOGLOBIN: 13.17 G/DL
  LEUKOCYTE COUNT: 20.17 x10E3/uL
  LYMPHOCYTE: 77%
  MEAN CORPUSCULAR HEMOGLOBIN: 23.57 pg
  MEAN CORPUSCULAR HEMOGLOBIN CONCENTRATION: 37.9 G/DL
  MONOCYTE: 1%
  NEUTROPHIL: 20.67%
  NUCLEATED RED BLOOD CELLS: 0 /100WBC
  PLATELET COUNT: 1455 x10E3/uL
[12]
  ALANINE AMINOTRANSFERASE: 47.67 u/L
  ALBUMIN: 3.9 G/DL
  ALKALINE PHOSPHATASE: 334.67 u/L
  ASPARTATE AMINOTRANSFERASE: 110.33 u/L
  BLOOD UREA NITROGEN: 19 mg/dL
  CARBON DIOXIDE: 16 mmol/L
  CHLORIDE: 111.67 MEQ/L
  CHOLESTEROL: 47.67 mg/dL
  CREATINE PHOSPHOKINASE: 488.33 u/L
  CREATININE: 0.18 mg/dL
  LACTATE DEHYDROGENASE: 467.33 u/L
  LIPASE: 8.33 u/L
  PHOSPHORUS: 12.73 mg/dL
  POTASSIUM: 7.45 MEQ/L
  TOTAL BILIRUBIN: 0.23 mg/dL
  TOTAL PROTEIN: 6.1 G/DL
  URIC ACID: 3.1 mg/dL
